Experiments:
Male Sprague-Dawley rats [1] = assay: Rotorod performance in rats; conditions: ratio of lowest effective anxiolytic dose (situational anxiety) and lowest effective dose producing side effects in rotorod, PO
Protocol: Rotorod Performance in Rats
Male Sprague-Dawley rats, weighing 180-200 grams at the beginning of the experiment were purchased from Charles River Laboratories (Wilmington, Mass.). The animals were housed in groups of four in a colony room maintained at constant temperature (21±2° C.) and humidity (50±10%). The room was illuminated 12 hours per day (lights on at 0600 h). The rats had ad libitum access to food and water. The degree of muscle coordination or balance (i.e., ataxia) was determined using a standard accelerating rotorod treadmill (Ugo Basile, Comerio-Varese, Italy or Columbus Instruments, Columbus, Ohio) that was 6 cm in diameter, 24 cm above the base, and run from an initial speed of 2 rpm to a maximum speed of 20 rpm. The time each animal remained on the rotating rod was automatically recorded, up to a maximum of 5 minutes.
(§1) Drug Administration: All drugs were administered PO 20-60 minutes before behavioral testing.
(§2) Data Analysis: Results were expressed as the mean±1 SEM. All data were subjected to analysis of variance (ANOVA) followed by individual mean comparisons using Fisher's Least Significant Difference Test (Kirk, 1968) where appropriate. The significance level was set at p<0.05.
The time on the rod for each rat was recorded. Compounds producing ataxia (motor incoordination) decrease the time spent on the rod compared with vehicle-treated animals.

Male Sprague-Dawley rats [2] = assay: Discriminative stimulus effects of chlordiazepoxide in rats (drug discrimination); conditions: ratio of lowest effective anxiolytic dose (situational anxiety) and lowest effective dose producing chlordiazepoxide-like effects in drug discrimination
Male Sprague-Dawley rats [3] = assay: Open-field locomotor activity in rats; conditions: ratio of lowest effective anxiolytic dose (situational anxiety) and lowest effective dose producing side effects in locomotor activity, PO
Protocol: Open-Field Locomotor Activity in Rats
Male Sprague-Dawley rats, weighing 250-290 grams at the beginning of the experiment were purchased from Charles River Laboratories (Wilmington, Mass.). The animals were housed in groups of four in a colony room maintained at constant temperature (21±2° C.) and humidity (50±10%). The room was illuminated 12 hours per day (lights on at 0600 h). The rats had ad libitum access to food and water. The testing apparatus consisted of Plexiglas chambers (42×42×30 cm) equipped with Digiscan activity monitors (Omnitech Electronics, Columbus, Ohio) that detect interruptions of 16 photobeams spaced 2.5 cm apart and 2.5 cm above the floor. Horizontal activity was monitored for 60 minutes.
as §1, §2
Rats were placed in an open field and the total distance covered by the rat was measured. The test duration was 60 minutes. Compounds producing sedative effects decrease the distance covered.

Male CF1 mice = assay: Protection from pentylenetetrazole-induced seizures; assay type: in vivo, mouse; conditions: PO 60 min before pentylenetetrazole 125 mg/kg s.c.
Protocol: Protection from Pentylenetetrazole-Induced Seizures
Male CF1 mice weighing 20-22 g at the time of the experiment were purchased from Charles River Laboratories (Wilmington, Mass.). Pentylenetetrazole (Sigma Chemical Co.) was administered at 125 mg/kg s.c. The number of animals surviving was recorded at 30 minutes and 60 minutes after administration of pentylenetetrazole.
Drug Administration: All drugs were administered PO 60 minutes before administration of pentyenetetrazole.
Data Analysis: The data are presented as the percent of animals protected from death. The data were analyzed by Chi Square statistics. The significance level was set at p<0.05.
Mice treated with certain compounds of the present invention were subjected to pentylenetetrazole (PTZ) at 125 mg/kg to induce seizures. The percent of animals protected from death within one hour of PTZ was measured.

male Wistar rats = assay: Elevated plus-maze in rats; assay type: in vivo, rat; conditions: rats, mean, N 6; for Open Entries: SOLVENT mean 2.57; for Closed Entries: SOLVENT mean 7.14; for Total Distance Travelled (m): SOLVENT mean 9.30; for Total Entries: SOLVENT mean 9.71; for % Open Time: SOLVENT mean 20.43; for % Open Entries: SOLVENT mean 25.57; for Time in open arms: SOLVENT mean 50.29; for Time in closed arms: SOLVENT mean 196.29
Protocol: Except where noted, the methods used were those of Miroslav M., et al., (2004) Pharmacology, Biochemistry and Behavior 79: 279-290. Experiments were carried out on male Wistar rats (Military Farm, Belgrade, Serbia and Montenegro), weighing 200-240 g. All procedures in the study conformed to EEC Directive 86/609 and were approved by the Ethical Committee on Animal Experimentation of the Medical Faculty in Belgrade. The rats were housed in transparent plastic cages, six animals per cage, and had free access to pelleted food and tap water before and after drug administration. The temperature of the animal room was 22±1° C., the relative humidity 40-70%, the illumination 120 1× and the 12/12-h light/dark period (light on at 06:00 h). All handling and testing took place during the light portion of the cycle. Throughout the study the animals were used only once.
Midazolam and flumazenil were generously donated from F. Hoffman-La Roche (Basel, Switzerland). Zolpidem was purchased from Toronto Research Chemicals (North York, Canada) and DMCM from Research Biochemicals (Natick, Mass., USA). All drugs were dissolved/suspended with the aid of sonication in a solvent containing 85% distilled water, 14% propylene glycol and 1% Tween 80™, and were administered intraperitoneally, in a volume of 1 ml/kg, 20 min before testing. Doses are expressed as the base forms of the drugs. In the cases of combined treatment, agonists were administered at separate sites, immediately after the antagonist. Each animal received a total volume of 2 ml/kg of compounds tested or appropriate vehicles, at two different injection sites.
The test apparatus was constructed of sheet metal, with a black rubber floor. It consisted of a maze elevated to a height of 50 cm with two open (50×10 cm) and two enclosed arms (50×10×40 cm), connected by junction area (central platform) measured 10×10 cm. Although the floor was rubberized, a ledge of sheet metal (0.3 cm high) surrounding the open arms was added, to avoid rats falling off. The illumination in the experimental room consisted of one red neon tube fixed on the ceiling, giving light intensity of 10 1× on the surface of the arms. The experiments were carried out during the diurnal phase (between 08:00 and 12:00 h). At the beginning of the experiment, rats were placed in the centre of the maze, facing one of the enclosed arms and observed for 5 min. The observer sat in the same room 1 m from the maze. After each trial, the maze was cleaned with dry and wet towels. Throughout the study, the number of rats per treatment group was 8-14. Each experiment was run over 4 consecutive days, with three control rats per day; as there was no difference in plus-maze activity among control subgroups, they were pooled in a single control group (n=12).
All numerical data presented in the figures were given as the mean±S.E.M. Each dose-response curve (agonist or antagonist alone or agonist+antagonist) was assessed by a one-way ANOVA. If the ANOVA was significant, each treatment condition was compared with the appropriate solvent control by a Dunnett's test (a=0.05). In case of significant effect in the number of enclosed arm entries, an analysis of covariance (ANCOVA) was performed in the anxiety-related parameters using the number of enclosed arm entries as covariate. Interactions between the agonists and antagonists were analyzed separately with a two-way ANOVA [factors: agonist dose versus cotreatment (an antagonist or saline)]; pairwise comparisons for the assessment of the antagonist influence on the agonist effects were conducted by Tukey's test, one of the methods recommended even in the absence of an overall significant F-test (Wilcox R R. New designs in analysis of variance. Annu Rev Psychol 1987; 38: 29-60). Statistical analyses were performed with commercial statistical software for PC, Stat for Windows R. 5.0.

[4] = DZP 1.25 mg/kg ip, t test p ≦ 0.05

CCOC(=O)c1ncn2c1CN=C(c1ccccc1)c1cc(Cl)ccc1-2
melting point: 174 to 175 °C

CNC1=Nc2ccc(Br)cc2C(c2ccccc2)=NC1
melting point: 234 to 235 °C

CNC1=Nc2ccc(C#C[Si](C)(C)C)cc2C(c2ccccc2)=NC1
melting point: 210 to 211 °C

CN1C(=O)CN=C(c2ccccn2)c2cc(C#C[Si](C)(C)C)ccc21
melting point: 194 to 195 °C

C#Cc1ccc2c(c1)C(c1ccccn1)=NCC(=O)N2C
melting point: 190 to 191 °C

CCOC(=O)c1ncn2c1CN=C(c1ccccn1)c1cc(C#C[Si](C)(C)C)ccc1-2
melting point: 205 to 206 °C

CCOC(=O)c1ncn2c1CN=C(c1cccs1)c1cc(C#C[Si](C)(C)C)ccc1-2
melting point: 124 to 127 °C

CCOC(=O)c1ncn2c1C(C)N=C(c1ccccc1)c1cc(Br)ccc1-2 (stereo not shown)
melting point: 164 to 165 °C

CCOC(=O)c1ncn2c1C(C)N=C(c1ccccc1)c1cc(C#C[Si](C)(C)C)ccc1-2 (stereo not shown)
melting point: 160 to 162 °C

CCOC(=O)c1ncn2c1C(C)N=C(c1ccccc1F)c1cc(C#C[Si](C)(C)C)ccc1-2 (stereo not shown)
melting point: 186 to 187 °C

CCOC(=O)c1ncn2c1C(C)N=C(c1ccccn1)c1cc(C#C[Si](C)(C)C)ccc1-2 (stereo not shown)
melting point: 197 to 198 °C

CC(C)(C)OC(=O)c1ncn2c1CN=C(c1ccccc1)c1cc(Br)ccc1-2
melting point: 222 to 223 °C

Cc1nnc2n1-c1ccc(C#CC(C)(C)C)cc1C(c1ccccc1Cl)=NC2
melting point: > 268 °C (dec.)

Cc1nnc2n1-c1ccc(C#CC(C)(C)C)cc1C(c1ccccc1)=NC2
melting point: 184 to 186 °C

O=C(OCC(F)(F)F)c1ncn2c1CN=C(c1ccccc1)c1cc(Br)ccc1-2
melting point: 202 to 204 °C

O=C(OCC(Cl)(Cl)Cl)c1ncn2c1CN=C(c1ccccc1)c1cc(Br)ccc1-2
melting point: 113 to 116 °C

C[Si](C)(C)C#Cc1ccc2c(c1)C(c1ccccc1)=NCc1c(C(=O)OCC(F)(F)F)ncn1-2
melting point: 107 to 110 °C

CCOC(=O)c1ncn2c1CN=C(c1ccccc1)c1cc(Br)ccc1-2 [DM-i-070, Ethyl 8-bromo-6-phenyl-4H-benzo[f]imidazo[1,5-a][1,4]diazepine-3-carboxylate]
Antianxiety/ataxia (Male Sprague-Dawley rats [1]): >100 | Antianxiety/abuse liability (Male Sprague-Dawley rats [2]): 10 | Antianxiety/sedation (Male Sprague-Dawley rats [3]): >100 | PTZ Seizures, effective dose (Male CF1 mice): <100 mg/kg

CN1C(=O)CN=C(c2ccccc2)c2cc(Cl)ccc21 [Diazepam, reference compound]
Antianxiety/abuse liability (Male Sprague-Dawley rats [2]): 5 | PTZ Seizures, effective dose (Male CF1 mice): <10 mg/kg | Open Entries (male Wistar rats; [4]): 4.83 | Closed Entries (male Wistar rats; DZP 1.25 mg/kg ip, t test p = 0.292): 5.50 | Total Distance Travelled (m) (male Wistar rats; DZP 1.25 mg/kg ip, t test p = 0.670): 8.59 m | Total Entries (male Wistar rats; DZP 1.25 mg/kg ip, t test p = 0.745): 10.33 | % Open Time (male Wistar rats; [4]): 46.33% | % Open Entries (male Wistar rats; [4]): 47.00% | Time in open arms (male Wistar rats; DZP 1.25 mg/kg ip, t test p = 0.052): 104.17 | Time in closed arms (male Wistar rats; DZP 1.25 mg/kg ip, t test p = 0.064): 129.50

C#Cc1ccc2c(c1)C(c1ccccc1F)=NC(C)c1c(C(=O)OCC)ncn1-2 (stereo not shown) [SH-053-2′F-S—CH3, 8-Ethynyl-6-(2-fluorophenyl)-4-methyl-4H-2,5,10b-triaza-benzo[e]azulene-3-carboxylic acid ethyl ester]
Open Entries (male Wistar rats; SH-053-2′F-S—CH3 10 mg/kg ip, t test p = 0.503): 3.33 | Closed Entries (male Wistar rats; SH-053-2′F-S—CH3 10 mg/kg ip, t test p ≦ 0.05): 4.67 | Total Distance Travelled (m) (male Wistar rats; SH-053-2′F-S—CH3 10 mg/kg ip, t test p = 0.080): 6.91 m | Total Entries (male Wistar rats; SH-053-2′F-S—CH3 10 mg/kg ip, t test p = 0.239): 8.00 | % Open Time (male Wistar rats; SH-053-2′F-S—CH3 10 mg/kg ip, t test p = 0.536): 25.00% | % Open Entries (male Wistar rats; SH-053-2′F-S—CH3 10 mg/kg ip, t test p = 0.147): 37.17% | Time in open arms (male Wistar rats; SH-053-2′F-S—CH3 10 mg/kg ip, printed t test line doubtful): 60.50 | Time in closed arms (male Wistar rats; SH-053-2′F-S—CH3 10 mg/kg ip, t test p = 0.586): 183.33

Cc1nnc2n1-c1ccc(Cl)cc1C(c1ccccc1Cl)=NC2 [Triazolam, reference compound]
Antianxiety/ataxia (Male Sprague-Dawley rats [1]): 100 | Antianxiety/abuse liability (Male Sprague-Dawley rats [2]): 30 | Antianxiety/sedation (Male Sprague-Dawley rats [3]): 300 | PTZ Seizures, effective dose (Male CF1 mice): <1.0 mg/kg

Source: patent US7618958B2, “Stereospecific anxiolytic and anticonvulsant agents with reduced muscle-relaxant, sedative-hypnotic and ataxic effects” (WISYS Technology Foundation, Inc., priority 2004, dated 2009)
